Source: patent US20210251234A1 (priority 2015, published 2021)
Like-named read-outs stand apart in the source and are kept apart here.

Assays:
[1] = test system: Zebra chip/purple top (Candidatus Liberibacter solanacearum / Candidatus Phytoplasma americanum); assay type: in vivo; settings: relative to untreated treatment 1
potato variety Caesar [2] = experiment: Potato tubercle production at harvest; assay type: in vivo, potato (Solanum tuberosum); settings: for Total production in Kilograms per parcel, Average: all categories, harvest; for Production in Kilograms per treatment categories: Combined: combined quality category; for Production in Kilograms per treatment categories: First: first quality category; for Production in Kilograms per treatment categories: Third: third quality category
Source text: (§1) The seeding was made on June 10. The potato variety used was Caesar, third-category tubercles were used. A soil application was made to all the treatments when fluoxastrobin fungicides were applied; 2-litters dose or commercial product per hectare, and penfuflen 0.650 litters dose per hectare; in order to prevent Fusarium spp. and/or Rhizoctoniasolani fungus attack. The experimental design used was random blocks with four repetitions; the experimental parcel was formed by four furrows at a distance between furrows of 0.92 m, and 10 meters length. The useful parcel consisted in two central furrows of each experimental parcel. Distance between plants was 0.25 m.
(§2) The applied treatments consisted in an application on the bottom of the furrow when the seeding was taking place, and eleven foliar applications.
Production: In harvest, each treatment production was analyzed, for which two lineal meters were harvested of each experimental parcel central furrows, registering the potato tubercles production for each of the four categories (first, second, third and combined).

[3] = test system: Zebra chip/purple top (Candidatus Liberibacter solanacearum); assay type: in vivo; settings: cross cut tubercles, relative to untreated
[4] = test system: Zebra chip (Candidatus Liberibacter solanacearum); assay type: in vivo; settings: fried slices, under heading Flake Burning Severity
potato variety Caesar [5] = experiment: Cultivation emergence (germination) in potato field trial; assay type: in vivo, potato (Solanum tuberosum); settings: 22 days after seeding, plants emerged in central furrows
Source text: as §1, §2
Emergence: Cultivation emergence was determined; for which the number of plants that emerged in each parcel central furrows was counted at 100% emergence. The data were collected on Jul. 2, 2014 (22 days after seeding).

Bactericera cockerelli = Bactericera cockerelli population dynamic (adults, nymphs, eggs) in potato field trial; assay type: in vivo; settings: for average of registered adults: B. cockerelli adults, four-repetitions average; for B. Cokerelli eggs population average / Average of registered B.cokerelli nymphs: average of four repetitions
Source text: as §1, §2
Bactericera cockerelli, Population Dynamic: Studies on adult psilides, nymphs and eggs were population dynamic were made. For which purpose a count was made before the first foliar application and subsequently after each treatment application. To know the number of adults 20 net traps (with entomologic net) per experimental parcel, in each evaluation. To determine the number of eggs and nymphs, 50 pinnas were evaluated per parcel in each evaluation.

In the case of `N#Cc1ccccc1NC(=O)c1snc(Cl)c1Cl` [Treatment 3, Isotianil], the “Zebra chip/purple top incidence control percentage” value ([1]; listed as 3) is reported as 14.35%, the “Total production in Kilograms per parcel, Average” value (potato variety Caesar [2]; listed as 3) is reported as 17.975 Kilograms per parcel and the “Production in Kilograms per treatment categories: Combined” value (potato variety Caesar [2]; listed as 3) is reported as 39.8 Kilograms. The “Production in Kilograms per treatment categories: First” value (potato variety Caesar [2]; listed as 3) was 0 Kilograms, the “Production in Kilograms per treatment categories: Third” value (potato variety Caesar [2]; listed as 3) was 24.3 Kilograms and the “tubercle staining Incidence Control Percentage” value ([3]; listed as 3) was 35.01%. For the same compound, the “tubercle staining Severity Control Percentage” value ([3]; listed as 3) was 43.13%, the “Flake burning Incidence control percentage” value ([4]; listed as 3) was 31.3% and the “Emergence Percentage” value (potato variety Caesar [5]; listed as 3) was 61.2%. The “average of registered adults” value (Bactericera cockerelli; 02-Sep., listed as T3) was 1.75, the “average of registered adults” value (Bactericera cockerelli; 5-Aug., 20 net traps per parcel, listed as T3) was 1 and the “average of registered adults” value (Bactericera cockerelli; 08-sep., listed as T3) was 0.5. The “average of registered adults” value (Bactericera cockerelli; 12-Aug., listed as T3) was 1.25, the “average of registered adults” value (Bactericera cockerelli; 18-Aug., listed as T3) was 3.75 and the “average of registered adults” value (Bactericera cockerelli; 19-Sep., listed as T3) was 4.75. The “B. Cokerelli eggs population average” value (Bactericera cockerelli; 08-sep., listed as T3) was 1.25, the “B. Cokerelli eggs population average” value (Bactericera cockerelli; 12-August, listed as T3) was 1.5 and the “Average of registered B.cokerelli nymphs” value (Bactericera cockerelli; 02-Sep., listed as T3) was 4.5. For the same compound, the “Average of registered B.cokerelli nymphs” value (Bactericera cockerelli; 08-sep., listed as T3) was 3, the “Average of registered B.cokerelli nymphs” value (Bactericera cockerelli; 12-Aug., listed as T3) was 0 and the “Average of registered B.cokerelli nymphs” value (Bactericera cockerelli; 18-Aug., listed as T3) was 0.
For `N#Cc1ccccc1NC(=O)c1snc(Cl)c1Cl` [Treatment 4, Isotianil], the “Zebra chip/purple top incidence control percentage” value ([1]; listed as 4) was 62.65%, the “Total production in Kilograms per parcel, Average” value (potato variety Caesar [2]; listed as 4) was 21.3 Kilograms per parcel and the “Production in Kilograms per treatment categories: Combined” value (potato variety Caesar [2]; listed as 4) was 37.7 Kilograms. The “Production in Kilograms per treatment categories: First” value (potato variety Caesar [2]; listed as 4) was 4 Kilograms, the “Production in Kilograms per treatment categories: Second” value (potato variety Caesar [2]; second quality category) was 7.8 Kilograms and the “Production in Kilograms per treatment categories: Third” value (potato variety Caesar [2]; listed as 4) was 35.7 Kilograms. For the same compound, the “tubercle staining Incidence Control Percentage” value ([3]; listed as 4) was 63.35%, the “tubercle staining Severity Control Percentage” value ([3]; listed as 4) was 74.50% and the “Flake burning Incidence control percentage” value ([4]; listed as 4) was 54%. The “Emergence Percentage” value (potato variety Caesar [5]; listed as 4) was 71.8%, the “average of registered adults” value (Bactericera cockerelli; 02-Sep., listed as T4) was 0.25 and the “average of registered adults” value (Bactericera cockerelli; 5-Aug., 20 net traps per parcel, listed as T4) was 0.75. The “average of registered adults” value (Bactericera cockerelli; 08-sep., listed as T4) was 0, the “average of registered adults” value (Bactericera cockerelli; 12-Aug., listed as T4) was 2 and the “average of registered adults” value (Bactericera cockerelli; 18-Aug., listed as T4) was 1. For the same compound, the “average of registered adults” value (Bactericera cockerelli; 19-Sep., listed as T4) was 2.75, the “B. Cokerelli eggs population average” value (Bactericera cockerelli; 02-Sep.) was 0 and the “B. Cokerelli eggs population average” value (Bactericera cockerelli; 5-August, 50 pinnas per parcel) was 0. For the same compound, the “B. Cokerelli eggs population average” value (Bactericera cockerelli; 08-sep., listed as T4) was 0.75, the “B. Cokerelli eggs population average” value (Bactericera cockerelli; 12-August, listed as T4) was 4.5 and the “B. Cokerelli eggs population average” value (Bactericera cockerelli; 18-August) was 0. For the same compound, the “B. Cokerelli eggs population average” value (Bactericera cockerelli; 19-Sep.) was 0, the “Average of registered B.cokerelli nymphs” value (Bactericera cockerelli; 02-Sep., listed as T4) was 13.75 and the “Average of registered B.cokerelli nymphs” value (Bactericera cockerelli; 5-Aug., 50 pinnas per parcel) was 0. For the same compound, the “Average of registered B.cokerelli nymphs” value (Bactericera cockerelli; 08-sep., listed as T4) was 0, the “Average of registered B.cokerelli nymphs” value (Bactericera cockerelli; 12-Aug., listed as T4) was 2.25 and the “Average of registered B.cokerelli nymphs” value (Bactericera cockerelli; 18-Aug., listed as T4) was 0.25. For the same compound, the “Average of registered B.cokerelli nymphs” value (Bactericera cockerelli; 19-Sep.) was 0.
